Test results published in ChEMBL document CHEMBL1817623, “Sesterterpenes from the tropical sponge Coscinoderma sp” (J Nat Prod, 2011).
Values after ≈ are worked out from the molar mass of the structure shown.

Assays:
Bacillus subtilis = test: Antimicrobial activity against Bacillus subtilis ATCC 6633; type: functional
Aspergillus fumigatus = test: Antimicrobial activity against Aspergillus fumigatus HIC 6094; type: functional
Staphylococcus aureus = test: Antimicrobial activity against Staphylococcus aureus ATCC 6538p; type: functional
[1] = system: Trichophyton mentagrophytes; test: Antimicrobial activity against Trichophyton mentagrophytes IFO 40996; type: functional
Proteus vulgaris = test: Antimicrobial activity against Proteus vulgaris ATCC 3851; type: functional
Salmonella typhimurium = test: Antimicrobial activity against Salmonella Typhimurium ATCC 14028; type: functional, Salmonella enterica subsp. enterica serovar Typhimurium; details: Salmonella enterica
[2] = target: Sodium/potassium-transporting ATPase; test: Inhibition of human Na(+)/K(+) ATPase assessed as reduction in ouabain-sensitive and K(+)-dependent cleavage of fluorescent pseudosubstrate 3-O-methylfluorescein phosphate by fluorometric method; type: protein-complex assay
Escherichia coli = test: Antimicrobial activity against Escherichia coli ATCC 35270; type: functional
Candida albicans = test: Antimicrobial activity against Candida albicans ATCC 10231; type: functional
Isocitrate lyase = Isocitrate lyase (Candida albicans, UniProt Q9P8Q7); test: Inhibition of Candida albicans isocitrate lyase
Chain of Isocitrate lyase (Q9P8Q7 whole entry): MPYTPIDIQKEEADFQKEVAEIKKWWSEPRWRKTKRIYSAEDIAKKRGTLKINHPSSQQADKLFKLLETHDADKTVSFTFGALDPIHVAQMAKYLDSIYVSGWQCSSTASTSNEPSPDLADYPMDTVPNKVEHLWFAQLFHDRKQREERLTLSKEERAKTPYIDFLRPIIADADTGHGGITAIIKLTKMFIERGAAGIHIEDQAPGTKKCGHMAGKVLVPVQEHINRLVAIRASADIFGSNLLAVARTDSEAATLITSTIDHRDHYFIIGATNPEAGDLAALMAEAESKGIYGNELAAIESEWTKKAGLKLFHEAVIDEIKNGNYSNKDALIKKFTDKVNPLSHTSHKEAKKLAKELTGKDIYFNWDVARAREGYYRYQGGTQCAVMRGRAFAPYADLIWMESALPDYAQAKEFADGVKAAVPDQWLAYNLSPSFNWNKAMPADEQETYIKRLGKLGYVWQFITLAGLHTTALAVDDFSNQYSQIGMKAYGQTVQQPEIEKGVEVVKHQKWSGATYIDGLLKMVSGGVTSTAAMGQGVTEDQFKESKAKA

K562 = test: Cytotoxicity against human K562 cells; type: functional; details: read-out: LC50 (the source's name)
Sortase A = target: T1, Sortase A (Staphylococcus aureus, UniProt Q9S446); test: Inhibition of recombinant Staphylococcus aureus ATCC 6538p sortase lacking the N-terminal membrane anchor domain expressed in Escherichia coli cells TOP10 using Dabcyl-QALPETGEE-Edans substrate measured after 1 hr by fluorescence S13 spectrophotometry
T1 sequence (Q9S446 whole entry): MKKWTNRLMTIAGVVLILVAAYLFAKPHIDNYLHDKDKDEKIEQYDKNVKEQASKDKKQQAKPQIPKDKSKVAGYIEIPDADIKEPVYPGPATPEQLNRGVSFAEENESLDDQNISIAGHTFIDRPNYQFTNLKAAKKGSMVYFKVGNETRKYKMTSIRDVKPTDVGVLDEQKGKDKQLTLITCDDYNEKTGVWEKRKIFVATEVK

Micrococcus luteus = test: Antimicrobial activity against Micrococcus luteus IFO 12708; type: functional
Trichophyton rubrum = test: Antimicrobial activity against Trichophyton rubrum IFO 9185; type: functional

Row | SMILES | MIC (Bacillus subtilis) | MIC (Aspergillus fumigatus) | MIC (Staphylococcus aureus) | MIC [1] | MIC (Proteus vulgaris) | MIC (Salmonella typhimurium) | IC50 [2] | MIC (Escherichia coli) | MIC (Candida albicans) | IC50 (Isocitrate lyase) | CC50 (K562) | IC50 (Sortase A) | MIC (Micrococcus luteus) | MIC (Trichophyton rubrum)
1 | CC1=CC[C@H]2C(C)(C)CCC[C@]2(C)[C@H]1C/C=C(\C)CCC/C(C)=C/Cc1cc(O)ccc1O | > 100 µg/mL | > 100 µg/mL | > 100 µg/mL | > 100 µg/mL | > 100 µg/mL | > 100 µg/mL | 117 µM | > 100 µg/mL | > 100 µg/mL | > 200 µM | 8 µM | > 200 µM | > 100 µg/mL | > 100 µg/mL
2 | CC1=CC[C@H]2C(C)(C)CCC[C@]2(C)[C@H]1C[C@@H](OS(=O)(=O)[O-])[C@H](C)CCC/C(C)=C/Cc1cc(O)ccc1O.[Na+] [HALISULFATE 1] | 3.13 µg/mL | > 100 µg/mL | 50 µg/mL | > 100 µg/mL |  |  | 3 µM | > 100 µg/mL | > 100 µg/mL | 19 µM | > 200 µM | 36 µM |  | > 100 µg/mL
3 | C=C1CC[C@H]2C(C)(C)CCC[C@]2(C)[C@H]1C[C@@H](OS(=O)(=O)[O-])[C@H](C)CCC/C(C)=C/Cc1cc(O)ccc1O.[Na+] |  | > 100 µg/mL |  | > 100 µg/mL |  |  | 4 µM | > 100 µg/mL | > 100 µg/mL | 45 µM | > 200 µM | 98 µM |  | > 100 µg/mL
4 | CC1=CC[C@H]2C(C)(C)CCC[C@]2(C)[C@H]1C[C@@H](OS(=O)(=O)[O-])[C@H](C)CCC/C(C)=C\Cc1cc(O)ccc1O.[Na+] | > 100 µg/mL | > 100 µg/mL | > 100 µg/mL | > 100 µg/mL | > 100 µg/mL | > 100 µg/mL | 5 µM | > 100 µg/mL | > 100 µg/mL | 52 µM | > 200 µM | 100 µM | > 100 µg/mL | > 100 µg/mL
5 | CO[C@H]1C=C(CC[C@H]2/C(=C/OS(=O)(=O)[O-])CC[C@H]3[C@]2(C)CC[C@H]2C(C)(C)CCC[C@]32C)[C@@H](OC)O1.[Na+] | > 100 µg/mL | > 100 µg/mL | > 100 µg/mL | > 100 µg/mL | > 100 µg/mL | > 100 µg/mL | 14 µM | > 100 µg/mL | > 100 µg/mL | 87 µM | 49 µM | > 200 µM | > 100 µg/mL | > 100 µg/mL
6 | CC1=CC[C@H]2C(C)(C)CCC[C@]2(C)[C@H]1C/C=C(/C)CCC/C(C)=C/Cc1cc(O)ccc1O [COSCINOQUINOL] | 3.25 µg/mL (≈ 7.21 µM) | > 100 µg/mL | > 100 µg/mL | > 100 µg/mL | 6.25 µg/mL (≈ 13.9 µM) | 25 µg/mL (≈ 55.5 µM) | 44 µM | > 100 µg/mL | > 100 µg/mL | > 200 µM | 8 µM | > 200 µM | 25 µg/mL (≈ 55.5 µM) | > 100 µg/mL
7 | CO[C@@H]1C=C(CC[C@H]2/C(=C/OS(=O)(=O)[O-])CC[C@H]3[C@]2(C)CC[C@H]2C(C)(C)CCC[C@]32C)C(=O)O1.[Na+] | > 100 µg/mL | > 100 µg/mL | > 100 µg/mL | > 100 µg/mL | > 100 µg/mL | > 100 µg/mL | 6 µM | > 100 µg/mL | > 100 µg/mL | 64 µM | 16 µM | > 200 µM | > 100 µg/mL | > 100 µg/mL
8 | CO[C@@H]1O[C@H](OC)[C@](O)(CC[C@H]2/C(=C/OS(=O)(=O)[O-])CC[C@H]3[C@]2(C)CC[C@H]2C(C)(C)CCC[C@]32C)[C@H]1O.[Na+] | > 100 µg/mL | > 100 µg/mL | > 100 µg/mL | > 100 µg/mL | > 100 µg/mL | > 100 µg/mL | 6 µM | > 100 µg/mL | > 100 µg/mL | 75 µM | 15 µM | > 200 µM | > 100 µg/mL | > 100 µg/mL
9 | C[C@@H]1[C@H](O)[C@@H](C)/C=C/C=C/C=C/C=C/C=C/C=C/C=C/[C@H](O[C@@H]2O[C@H](C)[C@@H](O)[C@H](N)[C@@H]2O)C[C@@H]2O[C@](O)(C[C@@H](O)C[C@@H](O)[C@H](O)CC[C@@H](O)C[C@@H](O)CC(=O)O[C@H]1C)C[C@H](O)[C@H]2C(=O)O [AMPHOTERICIN B] |  | 3.13 µg/mL (≈ 3.39 µM) |  | 3.13 µg/mL (≈ 3.39 µM) |  |  |  |  | 0.78 µg/mL (≈ 0.844 µM) |  |  |  |  | 3.13 µg/mL (≈ 3.39 µM)
10 | CC1(C)CCC[C@]2(C)[C@H]3CC/C(=C\OS(=O)(=O)[O-])[C@H](CCC4=CC(=O)OC4)[C@@]3(C)CC[C@@H]12.[Na+] | > 100 µg/mL | > 100 µg/mL | > 100 µg/mL | > 100 µg/mL | > 100 µg/mL | > 100 µg/mL | 19 µM | > 100 µg/mL | > 100 µg/mL | 150 µM | 56 µM | > 200 µM | > 100 µg/mL | > 100 µg/mL
11 | CC1(C)CCC[C@]2(C)[C@H]3CC/C(=C\OS(=O)(=O)[O-])[C@H](CCc4ccoc4)[C@@]3(C)CC[C@@H]12.C[N+](C)=C(N)N [SUVANINE] | 1.56 µg/mL | > 100 µg/mL | 100 µg/mL | > 100 µg/mL | > 100 µg/mL | 50 µg/mL | 8 µM | > 100 µg/mL | > 100 µg/mL | 17 µM | > 200 µM | > 200 µM | > 100 µg/mL | > 100 µg/mL
12 | O=C(O)CC[N+](=O)[O-] |  |  |  |  |  |  |  |  |  | 9 µM |  |  |  | 
13 | CC1(C)CCC[C@]2(C)[C@H]3CC/C(=C\OS(=O)(=O)[O-])[C@H](CCC4=CCNC4=O)[C@@]3(C)CC[C@@H]12.[Na+] | > 100 µg/mL | > 100 µg/mL | > 100 µg/mL | > 100 µg/mL | > 100 µg/mL | > 100 µg/mL | 18 µM | > 100 µg/mL | > 100 µg/mL | 62 µM | 22 µM | > 200 µM | > 100 µg/mL | > 100 µg/mL
14 | COc1cccc2c1C(=O)c1c(O)c3c(c(O)c1C2=O)C[C@@](O)(C(=O)CO)C[C@@H]3O[C@H]1C[C@H](N)[C@H](O)[C@H](C)O1 [DOXORUBICIN] |  |  |  |  |  |  |  |  |  |  | 13 µM |  |  | 
15 | CC1(C)CCC[C@]2(C)[C@H]3CC/C(=C\OS(=O)(=O)[O-])[C@H](CCc4ccoc4)[C@@]3(C)CC[C@@H]12.[Na+] [SUVANINE'S SODIUM SALT] | 1.56 µg/mL | > 100 µg/mL | 25 µg/mL | > 100 µg/mL | 25 µg/mL | 50 µg/mL | 9 µM | > 100 µg/mL | > 100 µg/mL | 5 µM | 16 µM | > 200 µM | 25 µg/mL | > 100 µg/mL
16 | CO[C@H]1C=C(CC[C@H]2/C(=C/OS(=O)(=O)[O-])CC[C@H]3[C@]2(C)CC[C@H]2C(C)(C)CCC[C@]32C)C(=O)O1.[Na+] | > 100 µg/mL | > 100 µg/mL | > 100 µg/mL | > 100 µg/mL | > 100 µg/mL | > 100 µg/mL | 17 µM | > 100 µg/mL | > 100 µg/mL | 165 µM | 45 µM | > 200 µM | > 100 µg/mL | > 100 µg/mL
17 | CC1(C)S[C@@H]2[C@H](NC(=O)[C@H](N)c3ccccc3)C(=O)N2[C@H]1C(=O)O [AMPICILLIN] | 0.39 µg/mL (≈ 1.12 µM) |  | 1.56 µg/mL (≈ 4.46 µM) |  | 0.39 µg/mL (≈ 1.12 µM) | 0.39 µg/mL (≈ 1.12 µM) |  | 6.25 µg/mL (≈ 17.9 µM) |  |  |  |  | 0.39 µg/mL (≈ 1.12 µM) | 
18 | CC1=CCC[C@@H](C)[C@]1(C)CC/C(C)=C/CCC(CCCc1ccoc1)COS(=O)(=O)[O-].[Na+] (stereo partly drawn) [HALISULFATE 2] | 6.25 µg/mL | > 100 µg/mL | > 100 µg/mL | > 100 µg/mL | 25 µg/mL | > 100 µg/mL | 5 µM | > 100 µg/mL | > 100 µg/mL | 24 µM | > 200 µM | > 200 µM | > 100 µg/mL | > 100 µg/mL
19 | CC1(C)CCC[C@]2(C)[C@H]3CC/C(=C\OS(=O)(=O)[O-])[C@H](CCC4=CC(=O)O[C@@H]4O)[C@@]3(C)CC[C@@H]12.[Na+] | > 100 µg/mL | > 100 µg/mL | > 100 µg/mL | > 100 µg/mL | > 100 µg/mL | > 100 µg/mL | 5 µM | > 100 µg/mL | > 100 µg/mL |  | 59 µM | > 200 µM | > 100 µg/mL | > 100 µg/mL
